From PubChem BioAssay AID489041 (Sanford-Burnham Center for Chemical Genomics, 2010) come the findings set out here.

Activity calls are given as the source filed them. The rule behind the calls is not given here. A value given as a limit tells only on which side of the number the result lay.

For the test, the system named is HEK-293T NF-kB luciferase reporter counterscreen, luminescence. The experiment in a line: inhibitors of HEK-293T NF-kB luciferase – HEK-293T cells, luminescence, counter-screen for T-cell antigen receptor NF-kB inhibitors, dose response (AID 489041). (In general: A counterscreen serves to expose hits that act by an unwanted route or on another target.)
With `CCC(C)C(=O)N[C@@H](c1ccccc1)[C@@H](O)C(=O)O[C@H]1C[C@@]2(O)[C@@H](OC(=O)c3ccccc3)C3[C@](C)(C(=O)[C@H](OC(C)=O)C(=C1C)C2(C)C)[C@@H](O)C[C@H]1OC[C@@]31OC(C)=O` (stereo not given in full), the IC50 (commonly the concentration at which inhibition is half-maximal) was > 80 µM (inactive).

Take `O=C(N/N=C/c1c(O)ccc2ccccc12)c1cccc(C(F)(F)F)c1`: the IC50 was 3.01 µM. In the case of `CCCCCCCCCCCCCCCC[n+]1cccc(C(=O)N(CC)CC)c1`, the IC50 is 20.9 µM (inactive). In the case of `CCn1ncc(C2=NOC(C(=O)NCc3ccccc3)C2)c1C` (stereo not given), the IC50 was 2.39 µM. On to `CCc1ccc(S(=O)(=O)/N=C2\C=C(Nc3ccc(O)cc3)C(=O)c3ccccc32)cc1`, for which the IC50 is 1.1 µM. Then `O=C(Cc1ccc(-c2ccccc2)cc1)NCc1ccccc1`, with < 0.16 µM; and `COC(=O)C[C@]1(C(=O)OC)CN(C#N)N(c2ccc(Cl)cc2)C12c1ccccc1-c1ccccc12`, with 20.1 µM (inactive). With `O=C(Nc1cccc2ccccc12)OC1C=CS(=O)(=O)C1` (stereo not given), the IC50 was 51.2 µM (inactive). As for `COc1ccccc1C1=NOC(COc2ccc3c(C)cc(=O)oc3c2)C1` (stereo not given), the figure is 4.89 µM; as for `CCOc1ccc(S(=O)(=O)N2c3ccccc3CC2C)cc1` (stereo not given), 5.98 µM; as for `Cc1nc2ccccc2c2c1CC(C(C)(Cl)Br)O2` (stereo not given), 2.9 µM. As to `CN(C)c1ccc(-c2nn3c(-c4ccccc4Cl)nnc3s2)cc1`, the concentration for half-maximal inhibition (IC50) was 19.8 µM. For `Clc1cccc(Cl)c1OCCOCCNCc1ccccc1`, the IC50 is 68.4 µM (inactive).

For `COc1ccc(C2=NOC(C(=O)NCc3cccs3)C2)cc1OC` (stereo not given), the IC50 was 35.2 µM (inactive). As for `CN(C)S(=O)(=O)c1ccc(Nc2nc(C3CC3)nc3c2nnn3Cc2ccccc2Cl)cc1`, the IC50 is 4.04 µM. Turning to `Cc1ccc(C[n+]2c(-c3ccc(C)cc3)cc(-c3ccc(C)cc3)cc2-c2ccc(C)cc2)cc1`, the IC50 was 1.19 µM. As to `Cn1nc(-c2ccccn2)nc2c(=O)n(C)c(=O)nc1-2`, the half-inhibitory concentration (IC50) is 5.68 µM.

As for `COc1ccc(C2=NOC(C(=O)NCc3ccc(F)cc3)C2)cc1OC` (stereo not given), the concentration for half-maximal inhibition (IC50) is 14.7 µM. Then `Cc1cc(C)cc(NC(=O)c2cc(C)n(Cc3cccs3)c2C)c1`, with > 80 µM (inactive); and `CCCCCCCCCCCCCCCC[n+]1ccc(C(N)=O)cc1`, with 46.7 µM (inactive); and `CCOc1ccccc1C(=O)N1CCN(c2cccc(Cl)c2)CC1`, with 2.28 µM. Then `O=S(=O)(C/C(=C/CO)S(=O)(=O)c1ccccc1)c1ccccc1`, with 6.81 µM; and `CC(C)Cn1c(N)c(C(=O)CSc2ccc3c(c2)OCCO3)c(=O)n(C)c1=O`, with 0.85 µM. As for `CC(C)CCOc1cccc(OCC(=O)Nc2ccncc2)c1`, the figure is 1.97 µM. As for `O=C(NC(Nc1nc2ccc([N+](=O)[O-])cc2s1)(C(F)(F)F)C(F)(F)F)c1ccccc1`, the IC50 is > 80 µM (inactive). For `COc1ccc(C(=O)NNC(=O)c2ccccn2)cc1`, the IC50 is 2.92 µM. As to `COc1ccccc1N1CCN(C(=O)C2c3ccccc3Oc3ccccc32)CC1`, the IC50 is 14.2 µM. On to `CC(C)c1ccc(/C=N/Nc2ccc(C(=O)O)cc2)cc1`, for which the IC50 was 4.37 µM.

With `Cc1ccc(Nc2nc(-c3c(C)nc4ccccn34)cs2)cc1`, the IC50 is 0.59 µM.

For the compound `O=C(Nc1nc(-c2ccccc2)cs1)c1ccc(N2CCOCC2)c([N+](=O)[O-])c1`, the IC50 is 1.1 µM.

As to `COc1cc(-c2noc(C)c2-c2ccc3[nH]ccc3c2)cc(OC)c1OC`, the IC50 was 2.45 µM. As for `COCCn1c(C)cc(C2=NNC(=Nc3ccccc3F)SC2)c1C`, the 50% inhibitory concentration (IC50) is 17.9 µM.

Turning to `CCO[C@H]1OC(C(=O)NCc2nc3ccccc3[nH]2)=C[C@@H](C2CC2)[C@@H]1CCCO`, the IC50 is 41.1 µM (inactive). As for `CN(Cc1ccccc1)C1=CC(=[N+]2CCCCC2)CC(C)(C)C1`, the IC50 is 0.73 µM. Then `Cc1cc(C)cc(NC(=O)c2ccc([N+](=O)[O-])o2)c1`, with 31.5 µM (inactive); and `COc1cc(C2C(C#N)=C(N)Oc3cc4c(cc32)OCO4)cc(OC)c1OC` (stereo not given), with 3.86 µM. On to `CC(=O)O[C@@]12CO[C@@H]1C[C@@H](O)[C@@]1(C)C(=O)[C@H](O)C3=C(C)[C@@H](OC(=O)[C@H](O)[C@@H](NC(=O)c4ccccc4)c4ccccc4)C[C@@](O)([C@@H](OC(=O)c4ccccc4)C12)C3(C)C` (stereo not given in full), for which the IC50 is > 80 µM (inactive). As for `C=CCn1c(C)cc(C2=NNC(=NCC)SC2)c1C`, the 50% inhibitory concentration (IC50) was 1.43 µM. `COc1cc(NS(=O)(=O)c2ccc(C)cc2)c2ncccc2c1`: the half-maximal inhibitory concentration (IC50) was 1.65 µM. As for `CC1CCN(c2c(NCc3ccc(C(=O)N4CCc5ccccc54)cc3)c(=O)c2=O)CC1`, the IC50 is 7.14 µM. `CC[C@]1(O)CC2CN(CCc3c([nH]c4ccccc34)[C@@](C(=O)OC)(c3cc4c(cc3OC)N(C=O)[C@H]3[C@@](O)(C(=O)OC)[C@H](OC(C)=O)[C@]5(CC)C=CCN6CC[C@]43[C@@H]65)C2)C1` (stereo not given in full): the IC50 was 3.12 µM. Consider `O=C(c1ccc(Br)cc1)c1cc([N+](=O)[O-])ccc1N1CCOCC1`, for which the concentration for half-maximal inhibition (IC50) is 10.8 µM.

Take `COC(=O)c1ccc2nc(Nc3nc4c(F)cc(F)cc4s3)sc2c1`: the IC50 was 0.51 µM. In the case of `COC(=O)c1[nH]c2c(c1C)C(=O)CC(c1cccc(OC)c1)C2` (stereo not given), the half-maximal inhibitory concentration (IC50) is 2.58 µM. `COc1ccc(OC)c(CCNC(=O)Cn2nc(C)c3c(C)n(-c4ccc(C)cc4)nc3c2=O)c1`: the half-maximal inhibitory concentration (IC50) was 1.28 µM. In the case of `COc1ccc(/C=c2/sc3n(c2=O)C(c2ccccc2OC)C2=C(N=3)c3ccccc3CC2)cc1O` (stereo not given), the IC50 was > 80 µM (inactive).

Consider `COc1cc2c(cc1O)CC[C@@H]1[C@@H]2CC[C@]2(C)[C@@H](O)CC[C@@H]12`, for which the IC50 was 23 µM (inactive).

Consider `CCC(=O)NC(c1ccc(C)cc1)c1ccc2cccnc2c1O` (stereo not given), for which the IC50 was 0.73 µM. Regarding `COc1cc(-c2noc(C)c2/C=C/c2ccc(OC(C)=O)cc2)cc(OC)c1OC`, the concentration for half-maximal inhibition (IC50) was 2.78 µM. Turning to `CC(C)(C)c1ccc(C(=O)Nc2ccc(Oc3cccnc3)nc2)cc1`, the IC50 is 2.18 µM. With `COc1ccc(-n2nnnc2-c2cccc(OC)c2)cc1`, the half-inhibitory concentration (IC50) was 19.7 µM. Turning to `COc1ccc(C(C(=O)NC2CCCCC2)N(C(=O)CCl)c2ccc(C)cc2)cc1` (stereo not given), the IC50 was > 80 µM (inactive). With `Cc1ccc(S(=O)(=O)/N=C2\C=C(Nc3ccc(O)cc3)C(=O)c3ccccc32)cc1`, the IC50 is 0.78 µM. Take `CCOc1ccc2c(c1)sc(N)[n+]2Cc1cc(C)cc2cccnc12`: the IC50 is 7.7 µM. Take `O=C(Nc1ccc([N+](=O)[O-])cc1)Nc1ccon1`: the IC50 was > 80 µM (inactive). `Cc1oc2c(c1C(=O)NCc1cccnc1)C(=O)c1ccccc1C2=O`: the IC50 was 1.48 µM.

`COc1ccc(OC)c(-c2nnc3n2N=C(c2ccc(OC)c(OC)c2)CS3)c1`: the half-inhibitory concentration (IC50) was 0.65 µM.

Consider `Cc1cc(C(=O)N2CC=C(c3ccccc3)CC2)c2ccccc2n1`, for which the half-inhibitory concentration (IC50) is 5.69 µM. For `COc1ccc(C)c(Cn2c(-c3nonc3N)nc3ccccc32)c1`, the IC50 was 1.84 µM. As for `COc1ccc(Cn2c(SCc3ccc(C)cc3)nc3cc(OC)c(OC)cc3c2=N)cc1Cl`, the IC50 was > 80 µM (inactive). For `CCCCc1ccc(NC(=O)C(=O)NCCN2CCN(Cc3ccc([N+](=O)[O-])cc3)CC2)cc1`, the half-maximal inhibitory concentration (IC50) was 0.4 µM. With `O=C(Nc1nc(-c2ccccn2)cs1)c1ccc(Cl)s1`, the IC50 was 4.44 µM. Consider `O[C@@H]1[C@@H](O)C=C2CCN3Cc4cc5c(cc4[C@H]1C23)OCO5` (stereo not given in full), for which the IC50 is 1.97 µM. As for `CCN(CC)c1ccc(NC(=O)c2cc(OC)cc(OC)c2)c(C)c1`, the figure is 6 µM; as for `CNC[C@H](CC1CCCCC1)NC[C@H](Cc1ccccc1)NCCC12CC3CC(CC(C3)C1)C2`, 25 µM (inactive). Then `O=C(Nc1ccc(Oc2cccnc2)nc1)c1ccc(C(F)(F)F)cc1`, with 1.52 µM; and `CCOC(=O)CSC1=C(C#N)C(c2ccc(C)s2)CC(=O)N1` (stereo not given), with 3.78 µM.

Turning to `Nc1nc(Cl)cc(N2CCC(c3cc(-c4ccc(Cl)cc4)n[nH]3)CC2)n1`, the IC50 was 2.44 µM. As for `Cc1ccc(Oc2ccc(OCC(=O)Nc3ccncc3)cc2)cc1`, the figure is 0.62 µM; as for `CCN(CC)c1ccc(/C=N/NC(=O)c2nnn(-c3nonc3N)c2C(C)C)c(O)c1`, 0.22 µM; as for `COc1ccc(OC)c(NS(=O)(=O)c2ccc(N3CCCC3=O)cc2)c1`, 4.36 µM.

On to `COC(=O)c1nn(-c2ccc3c(c2)CCN3C(C)=O)cc1O`, for which the IC50 was 3.87 µM. Turning to `Cc1ccc(O)c(NC(=O)c2cc(-c3ccccc3)on2)c1`, the IC50 is > 80 µM (inactive). On to `O=C(COc1ccc(C(=O)c2ccccc2)cc1)NCc1ccc(F)cc1`, for which the half-inhibitory concentration (IC50) was 6.31 µM. On to `C/C(=N\NC(=O)c1ccc(Cl)c(Cl)c1)c1ccccn1`, for which the IC50 is > 80 µM (inactive). Take `CC1=C([N+](=O)[O-])C(c2ccccc2)C2=C(N1)c1ccccc1C2=O` (stereo not given): the IC50 was 8.44 µM. As for `Cn1cc(C(=O)N/N=C/c2c(O)ccc3ccccc23)ccc1=O`, the figure is > 80 µM (inactive). With `O=Cc1cc2ccccc2nc1SCc1ccc(Cl)c(Cl)c1`, the half-inhibitory concentration (IC50) is 5.54 µM. As for `CCCCS(=O)(=O)/C=C\C=C/S(=O)(=O)CCCC`, the figure is 20.2 µM (inactive). As for `O=C(N/N=C(\c1ccccc1)c1cccnc1)c1cccc(F)c1`, the IC50 is > 80 µM (inactive). Then `COc1cc2nc(NC(=O)c3ccco3)sc(=O)c2cc1OC`, with 66.7 µM (inactive).

With `CCCCCCCCCn1c2c(c(=N)c3c1CCC3)CCCC2`, the 50% inhibitory concentration (IC50) is 0.68 µM. Then `COc1ccc(NC(=O)/C(Cl)=C(/Cl)S(=O)Cc2ccc(Cl)cc2)cn1` (stereo not given), with 7.65 µM. As to `COc1cccc(CN(C)C(=O)c2cc(COc3ccc4ncccc4c3)on2)c1`, the IC50 is 1.9 µM. As for `CC(=O)c1sc2c(c1OC(=O)c1ccc(Cl)cc1Cl)c(=O)n(-c1ccccc1)c(=S)n2-c1ccccc1`, the IC50 is 28.7 µM (inactive). For `CN(Cc1ccccc1)C1=CC(=[N+]2CCCC2)CC(C)(C)C1`, the IC50 is 1.61 µM. For the compound `Cc1c(C)c2ccc(OCC(=O)Nc3ccccn3)c(C)c2oc1=O`, the 50% inhibitory concentration (IC50) is 1.78 µM. Consider `Cc1ncoc1C(=O)NC1CCCc2c1cnn2-c1ccc(C(C)(C)C)cc1` (stereo not given), for which the 50% inhibitory concentration (IC50) was 3.41 µM. Consider `Cc1ccsc1/C=N/NC(=O)c1cc(-c2ccncc2)nc2ccccc12`, for which the IC50 was 2.94 µM. As for `CCCOCCOC(=O)c1[nH]c2c(c1C)C(=O)CC(c1cc(OC)ccc1OC)C2` (stereo not given), the figure is 1 µM.
